Data taken from patent US12600732B2, “Bifunctional compounds for degrading BTK via ubiquitin proteosome pathway” (NURIX THERAPEUTICS, INC., priority 2019, dated 2026).
pEC50: −log10 of the molar value.

What was measured:
BTK [1] = assay: PD data from cyno (BTK degradation); format: in vivo; conditions: blood
Description: In this example, compounds were profiled for activity in non-mouse species.

TMD8 C481S cells = assay: Cell viability assay (CellTiter-Glo), TMD8 C481S cells
BTK [2] = assay: Non-human primate (cyno) DRF PD, BTK remaining in B cells; format: in vivo; conditions: blood, 24 h after previous dose
Experimental: This example evaluates potency and tolerability of BTK CTMs following multiple, consecutive days of dosing and examines potency of compounds for BTK and Aiolos degradation. The data in the table below is from a study in which animals were dosed daily with the designated oral dose. Analysis for BTK and Aiolos levels was performed twenty-four hours following the previous dose.

[3] = tested on: TMD8 BTK C481S tumor cells; assay: TMD8 BTK C481S xenograft efficacy study; format: in vivo, mouse; conditions: PO, QD
Experimental: […] Tumor growth inhibition (% TGI) were calculated on the final day of measurement using the equation [1−(T−T0/C−T0)]×100, where T and C represent the mean size of tumors in the treated (T) and control (C) groups, and T0 refers to the tumor size at randomization.
This example examines the activity of various BTK CTMs in relevant disease models, including the WT and C481S TMD8 model, which models B cell malignancies with/without inhibitor-driven BTK mutations at C481.

BTK [4] = target: T1, BTK (Mus musculus, UniProt P35991); assay: In vivo degradation of BTK in mouse PD experiments with oral dosing; conditions: 24 h
T1 construct: from tissue; host or cells: mouse blood B cells / splenocytes (CD-1 or BALB/c)
Summary of the method: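 CD-1 or BALB/c mice dosed by oral gavage, screens at 90 mg/kg for 6 h, later at lower doses/longer times. Blood or splenocyte BTK measured by intracellular flow cytometry (or HTRF); % degradation from B-cell minus T-cell BTK geometric MFI, relative to vehicle.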

BTK [5] = target: BTK (Homo sapiens, UniProt Q06187); assay: BTK degradation (Total BTK HTRF) in Rec-1 cells (Mantle Cell Lymphoma model); format: cell-based; design: endogenous in cells; host or cells: TMD8, Mino, Rec-1; conditions: treatment time 4 h
Experimental: BTK levels were determined using Cisbio Total-BTK HTRF (Homologous Time-Resolved Fluorescence) kit (63ADK064PEG) according to the manufacturer's protocol. Briefly, cells were incubated in 1× supplied lysis buffer for 30 minutes. In an opaque white low volume 96-well plate (Cisbio, 66PL96005), cell lysate was combined with two different specific BTK antibodies, one conjugated with Eu^3+-Cryptate FRET donor and one conjugated with d2 FRET acceptor. Assay controls include wells containing cell lysate with only the Eu^3+-Cryptate FRET donor antibody and wells containing both HTRF antibodies and lysis buffer without cells or control lysate provided by Cisbio. HTRF ratio was calculated as (acceptor signal at 665 nm/donor signal at 620 nm)×10^4. Background HTRF levels were determined from the control well containing the donor, but no acceptor, antibody. Background HTRF levels were subtracted from all samples. Readouts were reported as HTRF levels relative to HTRF levels of DMSO-treated cells. Four-parameter non-linear regressions were performed in GraphPad Prism 7.02 to obtain DC50 values.
This example evaluates the potency of CTMs in a model of Mantle Cell Lymphoma (MCL). To evaluate potential therapeutic indications, BTK CTMs were assayed in models of Mantle Cell Lymphoma as with the TMD8 cells (ABC-DLBCL) above. Tested CTMs had similar potencies for BTK degradation in the MCL cell lines (Mino and Rec-1) and TMD8 cells.

T1 sequence (P35991 whole entry): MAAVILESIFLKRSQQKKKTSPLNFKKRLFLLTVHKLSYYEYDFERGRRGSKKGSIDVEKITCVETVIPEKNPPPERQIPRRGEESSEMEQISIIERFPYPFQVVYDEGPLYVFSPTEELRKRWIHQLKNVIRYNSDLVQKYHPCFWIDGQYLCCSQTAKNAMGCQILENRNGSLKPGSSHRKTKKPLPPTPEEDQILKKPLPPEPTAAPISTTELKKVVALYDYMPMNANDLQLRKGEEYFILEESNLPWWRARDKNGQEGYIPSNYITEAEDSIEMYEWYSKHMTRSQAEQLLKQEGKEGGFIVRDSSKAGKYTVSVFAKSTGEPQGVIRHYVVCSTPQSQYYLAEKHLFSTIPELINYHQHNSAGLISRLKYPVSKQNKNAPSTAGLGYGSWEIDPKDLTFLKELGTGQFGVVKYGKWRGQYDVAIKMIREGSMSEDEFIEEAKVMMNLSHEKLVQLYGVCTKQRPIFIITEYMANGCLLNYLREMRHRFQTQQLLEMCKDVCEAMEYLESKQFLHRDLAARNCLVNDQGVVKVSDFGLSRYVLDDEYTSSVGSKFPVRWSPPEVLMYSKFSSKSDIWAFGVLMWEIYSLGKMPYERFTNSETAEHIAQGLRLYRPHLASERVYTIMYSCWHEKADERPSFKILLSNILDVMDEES
Sequence of BTK (Homo sapiens, UniProt Q06187) (Q06187 whole entry): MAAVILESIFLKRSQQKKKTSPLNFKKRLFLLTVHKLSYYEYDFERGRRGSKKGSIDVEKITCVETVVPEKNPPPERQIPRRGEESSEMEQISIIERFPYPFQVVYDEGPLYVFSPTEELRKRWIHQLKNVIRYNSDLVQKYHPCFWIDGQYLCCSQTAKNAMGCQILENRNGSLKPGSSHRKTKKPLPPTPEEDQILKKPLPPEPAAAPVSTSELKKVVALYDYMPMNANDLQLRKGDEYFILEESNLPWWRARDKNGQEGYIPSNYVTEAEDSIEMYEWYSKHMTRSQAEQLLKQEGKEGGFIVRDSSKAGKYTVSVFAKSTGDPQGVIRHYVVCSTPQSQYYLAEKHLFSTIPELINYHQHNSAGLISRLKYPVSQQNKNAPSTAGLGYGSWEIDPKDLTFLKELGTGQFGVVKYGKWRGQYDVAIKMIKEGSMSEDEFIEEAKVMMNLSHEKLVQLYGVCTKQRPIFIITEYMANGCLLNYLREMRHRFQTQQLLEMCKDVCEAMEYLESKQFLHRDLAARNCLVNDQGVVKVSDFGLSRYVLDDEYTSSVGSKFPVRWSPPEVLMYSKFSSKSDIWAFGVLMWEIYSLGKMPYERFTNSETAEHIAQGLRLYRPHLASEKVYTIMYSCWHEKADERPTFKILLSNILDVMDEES

## NC(=O)c1ncc(N2CCCCC2)nc1Nc1ccc(C2CCN(C[C@@H]3CCN(c4ccc5c(c4)C(=O)N(C4CCC(=O)NC4=O)C5=O)C3)CC2)cc1 (stereo partly drawn) [Compound 149]
BTK [1]; 1 mg/kg IV, 2 h
  % BTK Remaining: 24%
BTK [1]; 1 mg/kg IV, 4 h
  % BTK Remaining: 9%
BTK [1]; 1 mg/kg IV, 8 h
  % BTK Remaining: 4%
BTK [1]; 1 mg/kg IV, 24 h
  % BTK Remaining: 7%
BTK [1]; 10 mg/kg PO, 2 h
  % BTK Remaining: 81%
BTK [1]; 10 mg/kg PO, 4 h
  % BTK Remaining: 39%
BTK [1]; 10 mg/kg PO, 8 h
  % BTK Remaining: 17%
BTK [1]; 10 mg/kg PO, 24 h
  % BTK Remaining: 12%
BTK [1]; 30 mg/kg PO, 2 h
  % BTK Remaining: 89%
BTK [1]; 30 mg/kg PO, 4 h
  % BTK Remaining: 51%
BTK [1]; 30 mg/kg PO, 8 h
  % BTK Remaining: 26%
BTK [1]; 30 mg/kg PO, 24 h
  % BTK Remaining: 19%
BTK [1]; 100 mg/kg PO, 2 h
  % BTK Remaining: 97%
BTK [1]; 100 mg/kg PO, 4 h
  % BTK Remaining: 56%
BTK [1]; 100 mg/kg PO, 8 h
  % BTK Remaining: 20%
BTK [1]; 100 mg/kg PO, 24 h
  % BTK Remaining: 12%
TMD8 C481S cells; Homo sapiens, TMD8, 72 h
  pEC50: 7.43
TMD8 C481S cells; TMD8 C481S cells, treatment time 72 h
  EMAX (% viable cells): 18%
BTK [2]; 10 mg/kg PO daily, 1 day of dosing
  % BTK Remaining in B cells: 9%
BTK [2]; 10 mg/kg PO daily, 14 days of dosing
  % BTK Remaining in B cells: 7%
BTK [2]; 30 mg/kg PO daily, 1 day of dosing
  % BTK Remaining in B cells: 4%
BTK [2]; 30 mg/kg PO daily, 14 days of dosing
  % BTK Remaining in B cells: 6%
BTK [2]; 100 mg/kg PO daily, 1 day of dosing
  % BTK Remaining in B cells: 3%
BTK [2]; 100 mg/kg PO daily, 14 days of dosing
  % BTK Remaining in B cells: 6%
[3]; 10 mg/kg, 23 days of dosing
  Tumor Growth Inhibition (relative to vehicle): 27%
[3]; 10 mg/kg, 24 days of dosing
  Tumor Growth Inhibition (relative to vehicle): 17%
[3]; 30 mg/kg, 23 days of dosing
  Tumor Growth Inhibition (relative to vehicle): 29%
[3]; 30 mg/kg, 24 days of dosing
  Tumor Growth Inhibition (relative to vehicle): 43%
[3]; 90 mg/kg, 24 days of dosing
  Tumor Growth Inhibition (relative to vehicle): 59%
BTK [4]; oral dose 10 mg/kg, blood, flow cytometry
  % BTK Remaining: 27%
BTK [4]; oral dose 10 mg/kg, splenocytes, HTRF
  % BTK Remaining: 21%
BTK [4]; oral dose 30 mg/kg, blood, flow cytometry
  % BTK Remaining: 11%
BTK [4]; oral dose 30 mg/kg, splenocytes, HTRF
  % BTK Remaining: 8%
BTK [4]; oral dose 90 mg/kg, blood, flow cytometry
  % BTK Remaining: 1%
BTK [4]; oral dose 90 mg/kg, splenocytes, HTRF
  % BTK Remaining: 1%
BTK [5]
  DC50: 4 nM
